# Measured values taken from the kinase profiling compilation of Christmann-Franck et al. (2016).
# Tests used:
# Test in all cases: radiometric filter-binding kinase assay, Kinase HotSpot
# Conditions in all cases: compound 0.5 µM; ATP 10 µM
# [1] = biological target: AURKA (human) (UniProt O14965)
# [2] = biological target: AURKB (human) (UniProt Q96GD4)
# [3] = biological target: CLK2 (human) (UniProt P49760)
# [4] = biological target: DAPK2 (human) (UniProt Q9UIK4)
# [5] = biological target: EPHB1 (human) (UniProt P54762)
# [6] = biological target: ERBB2 (human) (UniProt P04626)
# [7] = biological target: FGFR1 (human) (UniProt P11362)
# [8] = biological target: FGFR2 (human) (UniProt P21802)
# [9] = biological target: FLT1 (human) (UniProt P17948)
# [10] = biological target: FYN (human) (UniProt P06241)
# [11] = biological target: GRK6 (human) (UniProt P43250)
# [12] = biological target: GSK3A (human) (UniProt P49840)
# Sequence of GSK3A (human) (P49840 whole entry, looked up): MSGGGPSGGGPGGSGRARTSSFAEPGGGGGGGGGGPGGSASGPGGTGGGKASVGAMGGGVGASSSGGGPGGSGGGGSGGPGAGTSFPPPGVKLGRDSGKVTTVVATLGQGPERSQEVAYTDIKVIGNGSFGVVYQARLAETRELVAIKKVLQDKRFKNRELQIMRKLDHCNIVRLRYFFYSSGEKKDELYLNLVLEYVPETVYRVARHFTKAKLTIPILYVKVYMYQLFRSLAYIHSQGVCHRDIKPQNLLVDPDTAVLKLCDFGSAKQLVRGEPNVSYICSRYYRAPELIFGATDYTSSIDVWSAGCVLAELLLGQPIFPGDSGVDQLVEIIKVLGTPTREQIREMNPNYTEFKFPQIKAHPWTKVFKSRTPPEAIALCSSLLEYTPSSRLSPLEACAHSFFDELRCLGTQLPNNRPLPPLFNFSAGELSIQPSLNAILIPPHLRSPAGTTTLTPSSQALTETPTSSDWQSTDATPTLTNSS
# [13] = biological target: INSR (human) (UniProt P06213)
# [14] = biological target: INSRR (human) (UniProt P14616)
# Sequence of INSRR (human) (P14616 whole entry, looked up): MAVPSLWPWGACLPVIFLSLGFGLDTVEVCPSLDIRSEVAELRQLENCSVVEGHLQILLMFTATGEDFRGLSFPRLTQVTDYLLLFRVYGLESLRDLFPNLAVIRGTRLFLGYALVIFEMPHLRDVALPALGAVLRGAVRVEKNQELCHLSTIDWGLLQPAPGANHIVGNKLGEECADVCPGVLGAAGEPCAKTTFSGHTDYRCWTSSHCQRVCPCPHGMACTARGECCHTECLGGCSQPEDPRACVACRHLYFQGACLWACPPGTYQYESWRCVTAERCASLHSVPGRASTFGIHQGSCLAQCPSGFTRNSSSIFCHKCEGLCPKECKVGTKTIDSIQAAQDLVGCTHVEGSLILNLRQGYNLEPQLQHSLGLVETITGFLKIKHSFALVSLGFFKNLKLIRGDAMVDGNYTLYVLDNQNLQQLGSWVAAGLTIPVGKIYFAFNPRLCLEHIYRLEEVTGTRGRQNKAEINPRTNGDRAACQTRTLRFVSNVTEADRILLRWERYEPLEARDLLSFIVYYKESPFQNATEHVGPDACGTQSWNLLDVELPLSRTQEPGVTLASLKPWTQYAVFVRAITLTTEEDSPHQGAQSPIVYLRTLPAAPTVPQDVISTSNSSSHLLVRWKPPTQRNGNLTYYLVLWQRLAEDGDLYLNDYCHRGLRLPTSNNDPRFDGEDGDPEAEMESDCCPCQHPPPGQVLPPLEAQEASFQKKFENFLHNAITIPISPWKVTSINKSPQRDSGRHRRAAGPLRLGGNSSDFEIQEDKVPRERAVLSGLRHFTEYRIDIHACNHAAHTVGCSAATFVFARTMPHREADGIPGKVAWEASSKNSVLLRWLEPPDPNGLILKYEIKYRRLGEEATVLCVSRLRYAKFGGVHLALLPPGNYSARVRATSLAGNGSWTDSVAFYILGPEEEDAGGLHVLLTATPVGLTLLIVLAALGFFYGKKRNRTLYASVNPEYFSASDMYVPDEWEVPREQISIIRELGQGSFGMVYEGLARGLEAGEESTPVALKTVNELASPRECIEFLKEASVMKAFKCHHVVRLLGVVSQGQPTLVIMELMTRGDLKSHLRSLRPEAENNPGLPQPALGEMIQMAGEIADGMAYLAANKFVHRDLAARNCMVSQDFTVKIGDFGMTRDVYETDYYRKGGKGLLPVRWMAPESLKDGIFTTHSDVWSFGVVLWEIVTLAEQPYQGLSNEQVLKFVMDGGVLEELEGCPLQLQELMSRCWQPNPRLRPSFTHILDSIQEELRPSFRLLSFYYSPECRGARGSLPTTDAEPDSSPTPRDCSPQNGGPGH
# [15] = biological target: JAK2 JH1 JH2 (human) (UniProt O60674)
# [16] = biological target: MAP3K8 (human) (UniProt P41279)
# [17] = biological target: MAPK1 (human) (UniProt P28482)
# [18] = biological target: MAPK12 (human) (UniProt P53778)
# [19] = biological target: MAPK13 (human) (UniProt O15264)
# [20] = biological target: MAPK14 (human) (UniProt Q16539)
# [21] = biological target: MAPKAPK5 (human) (UniProt Q8IW41)
# [22] = biological target: MARK1 (human) (UniProt Q9P0L2)
# [23] = biological target: MARK2 (human) (UniProt Q7KZI7)
# [24] = biological target: MUSK (human) (UniProt O15146)
# [25] = biological target: PAK3 (human) (UniProt O75914)
# [26] = biological target: PDGFRB (human) (UniProt P09619)
# [27] = biological target: PDPK1 (human) (UniProt O15530)
# Sequence of PDPK1 (human) (O15530 whole entry, looked up): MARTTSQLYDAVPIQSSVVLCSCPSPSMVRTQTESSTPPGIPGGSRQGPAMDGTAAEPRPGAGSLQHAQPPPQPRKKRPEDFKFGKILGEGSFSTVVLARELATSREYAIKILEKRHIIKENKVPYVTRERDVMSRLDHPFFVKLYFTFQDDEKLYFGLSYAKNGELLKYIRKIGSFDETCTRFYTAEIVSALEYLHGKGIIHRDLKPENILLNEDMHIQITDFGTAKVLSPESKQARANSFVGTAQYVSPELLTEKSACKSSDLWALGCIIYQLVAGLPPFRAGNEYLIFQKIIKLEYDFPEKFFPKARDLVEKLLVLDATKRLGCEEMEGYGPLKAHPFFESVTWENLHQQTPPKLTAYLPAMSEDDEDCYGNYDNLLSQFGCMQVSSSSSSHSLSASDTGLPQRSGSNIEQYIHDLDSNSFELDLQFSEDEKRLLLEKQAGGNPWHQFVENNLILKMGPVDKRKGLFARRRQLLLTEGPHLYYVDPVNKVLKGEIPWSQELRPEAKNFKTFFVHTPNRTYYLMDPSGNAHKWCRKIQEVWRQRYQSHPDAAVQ
# [28] = biological target: PHKG2 (human) (UniProt P15735)
# [29] = biological target: PIM2 (human) (UniProt Q9P1W9)
# [30] = biological target: PLK1 (human) (UniProt P53350)
# [31] = biological target: PLK2 (human) (UniProt Q9NYY3)
# [32] = biological target: PRKACA (human) (UniProt P17612)
# [33] = biological target: PRKCB1 (human) (UniProt P05771)
# Sequence of PRKCB1 (human) (P05771 whole entry, looked up): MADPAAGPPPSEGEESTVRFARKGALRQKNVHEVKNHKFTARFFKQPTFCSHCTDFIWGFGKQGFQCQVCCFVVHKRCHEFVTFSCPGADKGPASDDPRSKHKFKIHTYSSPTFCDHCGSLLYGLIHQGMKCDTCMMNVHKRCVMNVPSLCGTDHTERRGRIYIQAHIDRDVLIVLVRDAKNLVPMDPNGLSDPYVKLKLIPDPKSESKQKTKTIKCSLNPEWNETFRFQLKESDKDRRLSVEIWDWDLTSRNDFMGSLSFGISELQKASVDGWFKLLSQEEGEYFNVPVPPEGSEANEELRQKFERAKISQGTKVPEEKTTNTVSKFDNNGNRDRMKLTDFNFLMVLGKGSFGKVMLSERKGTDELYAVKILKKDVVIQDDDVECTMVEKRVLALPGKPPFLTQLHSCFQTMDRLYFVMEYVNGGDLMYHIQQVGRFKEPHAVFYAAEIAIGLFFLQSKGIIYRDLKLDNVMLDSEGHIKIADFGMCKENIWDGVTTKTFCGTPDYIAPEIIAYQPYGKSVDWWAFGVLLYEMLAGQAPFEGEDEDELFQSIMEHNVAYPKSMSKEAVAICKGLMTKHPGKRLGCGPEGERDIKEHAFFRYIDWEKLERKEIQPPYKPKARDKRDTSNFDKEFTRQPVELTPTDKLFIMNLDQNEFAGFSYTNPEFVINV
# [34] = biological target: PRKCE (human) (UniProt Q02156)
# [35] = biological target: PRKD3 (human) (UniProt O94806)
# Sequence of PRKD3 (human) (O94806 whole entry, looked up): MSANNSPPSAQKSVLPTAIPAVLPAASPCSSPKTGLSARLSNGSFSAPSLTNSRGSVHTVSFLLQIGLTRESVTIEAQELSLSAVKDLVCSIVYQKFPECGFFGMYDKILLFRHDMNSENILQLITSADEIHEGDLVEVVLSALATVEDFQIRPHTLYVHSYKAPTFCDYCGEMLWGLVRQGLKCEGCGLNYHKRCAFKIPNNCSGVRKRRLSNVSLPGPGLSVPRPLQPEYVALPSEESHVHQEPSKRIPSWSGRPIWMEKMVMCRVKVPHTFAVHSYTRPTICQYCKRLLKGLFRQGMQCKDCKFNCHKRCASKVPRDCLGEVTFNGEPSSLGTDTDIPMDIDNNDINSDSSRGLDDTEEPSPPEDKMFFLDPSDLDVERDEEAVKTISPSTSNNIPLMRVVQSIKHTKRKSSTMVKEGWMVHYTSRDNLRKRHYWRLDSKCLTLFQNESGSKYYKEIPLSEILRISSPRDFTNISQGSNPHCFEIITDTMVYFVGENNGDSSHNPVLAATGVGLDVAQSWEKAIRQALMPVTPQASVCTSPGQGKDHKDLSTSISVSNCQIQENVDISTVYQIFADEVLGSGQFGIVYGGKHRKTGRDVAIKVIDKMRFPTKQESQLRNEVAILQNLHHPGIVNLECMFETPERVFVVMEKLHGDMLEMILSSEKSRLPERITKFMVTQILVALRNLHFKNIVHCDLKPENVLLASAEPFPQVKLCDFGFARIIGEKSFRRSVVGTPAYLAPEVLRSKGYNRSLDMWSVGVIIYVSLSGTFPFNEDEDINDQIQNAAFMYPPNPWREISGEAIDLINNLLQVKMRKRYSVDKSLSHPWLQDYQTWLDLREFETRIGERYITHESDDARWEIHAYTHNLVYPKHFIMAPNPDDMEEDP
# [36] = biological target: RPS6KA1 KD1 KD2 (human) (UniProt Q15418)
# Sequence of RPS6KA1 KD1 KD2 (human) (Q15418 whole entry, looked up): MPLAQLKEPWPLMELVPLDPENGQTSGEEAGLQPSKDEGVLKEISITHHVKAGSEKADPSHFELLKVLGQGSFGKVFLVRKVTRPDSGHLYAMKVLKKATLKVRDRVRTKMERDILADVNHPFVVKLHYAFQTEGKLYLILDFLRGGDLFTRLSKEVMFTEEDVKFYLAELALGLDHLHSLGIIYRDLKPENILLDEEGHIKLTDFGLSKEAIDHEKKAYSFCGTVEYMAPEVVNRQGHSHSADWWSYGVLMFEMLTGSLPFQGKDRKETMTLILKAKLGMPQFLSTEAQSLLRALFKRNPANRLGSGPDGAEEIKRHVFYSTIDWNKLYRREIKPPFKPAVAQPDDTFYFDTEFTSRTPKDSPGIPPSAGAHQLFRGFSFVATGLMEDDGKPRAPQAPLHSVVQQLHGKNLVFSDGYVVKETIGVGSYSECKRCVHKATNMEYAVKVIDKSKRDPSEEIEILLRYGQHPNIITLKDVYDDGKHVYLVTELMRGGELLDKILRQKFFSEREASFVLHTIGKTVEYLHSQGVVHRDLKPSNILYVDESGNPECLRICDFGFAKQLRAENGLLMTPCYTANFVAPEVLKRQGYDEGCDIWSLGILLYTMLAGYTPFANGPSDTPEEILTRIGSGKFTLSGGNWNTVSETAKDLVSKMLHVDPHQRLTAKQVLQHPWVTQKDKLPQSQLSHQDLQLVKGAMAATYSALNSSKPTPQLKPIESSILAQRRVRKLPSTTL
# [37] = biological target: RPS6KB1 (human) (UniProt P23443)
# [38] = biological target: TBK1 (human) (UniProt Q9UHD2)
# [39] = biological target: TSSK2 (human) (UniProt Q96PF2)
# [40] = biological target: TYRO3 (human) (UniProt Q06418)
# [41] = biological target: ULK2 (human) (UniProt Q8IYT8)
# [42] = biological target: WNK2 (human) (UniProt Q9Y3S1)
# Sequence of DAPK2 (human) (Q9UIK4 whole entry, looked up): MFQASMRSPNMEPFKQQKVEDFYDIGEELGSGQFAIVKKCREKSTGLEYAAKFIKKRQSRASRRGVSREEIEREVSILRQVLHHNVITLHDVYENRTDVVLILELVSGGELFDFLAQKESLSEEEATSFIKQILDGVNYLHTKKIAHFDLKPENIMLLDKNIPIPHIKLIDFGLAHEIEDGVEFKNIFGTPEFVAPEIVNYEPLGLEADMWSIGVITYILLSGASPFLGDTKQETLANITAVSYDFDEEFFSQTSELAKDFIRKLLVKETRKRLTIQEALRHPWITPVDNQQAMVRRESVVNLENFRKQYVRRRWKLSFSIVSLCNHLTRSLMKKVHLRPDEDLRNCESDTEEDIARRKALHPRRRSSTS
smiles,measurement,setting,value
N#C/C(=C(/N)Sc1ccc(N)cc1)c1ccccc1C(F)(F)F,residual activity,[1],103%
same,residual activity,[2],99.8%
same,residual activity,[3],100%
same,residual activity,[4],112%
same,residual activity,[5],98.8%
same,residual activity,[6],93%
same,residual activity,[7],108%
same,residual activity,[8],101%
same,residual activity,[9],85.4%
same,residual activity,[10],97.1%
same,residual activity,[11],100%
same,residual activity,[12],110%
same,residual activity,[13],101%
same,residual activity,[14],88.1%
same,residual activity,[15],98.7%
same,residual activity,[16],96.5%
same,residual activity,[17],86%
same,residual activity,[18],97.4%
same,residual activity,[19],104%
same,residual activity,[20],96%
same,residual activity,[21],89.9%
same,residual activity,[22],99.9%
same,residual activity,[23],124%
same,residual activity,[24],91.9%
same,residual activity,[25],99.2%
same,residual activity,[26],103%
same,residual activity,[27],103%
same,residual activity,[28],96.1%
same,residual activity,[29],103%
same,residual activity,[30],92.6%
same,residual activity,[31],98.1%
same,residual activity,[32],109%
same,residual activity,[33],93.1%
same,residual activity,[34],104%
same,residual activity,[35],96.8%
same,residual activity,[36],88.7%
same,residual activity,[37],102%
same,residual activity,[38],98.1%
same,residual activity,[39],94.2%
same,residual activity,[40],110%
same,residual activity,[41],115%
same,residual activity,[42],109%
CCOC(=O)c1c(C)[nH]c(/C=C2\C(=O)Nc3ccccc32)c1C,residual activity,[1],90.4%
same,residual activity,[2],67.3%
same,residual activity,[3],86%
same,residual activity,[4],96.3%
same,residual activity,[5],97.5%
same,residual activity,[6],101%
same,residual activity,[7],78.6%
same,residual activity,[8],97.9%
same,residual activity,[9],79%
same,residual activity,[10],97.3%
same,residual activity,[11],90.8%
same,residual activity,[12],93.5%
same,residual activity,[13],90.6%
same,residual activity,[14],93.8%
same,residual activity,[15],96.7%
same,residual activity,[16],108%
same,residual activity,[17],96.4%
same,residual activity,[18],101%
same,residual activity,[19],98.3%
same,residual activity,[20],134%
same,residual activity,[21],93.9%
same,residual activity,[22],90.8%
same,residual activity,[23],87.6%
same,residual activity,[24],88.7%
same,residual activity,[25],99.1%
same,residual activity,[26],69.1%
same,residual activity,[27],92.5%
same,residual activity,[28],96.2%
same,residual activity,[29],97.7%
same,residual activity,[30],107%
same,residual activity,[31],102%
same,residual activity,[32],97.3%
same,residual activity,[33],103%
same,residual activity,[34],98.2%
same,residual activity,[35],90.1%
same,residual activity,[36],77.6%
same,residual activity,[37],85.7%
same,residual activity,[38],70.5%
same,residual activity,[39],95.9%
same,residual activity,[40],96.9%
same,residual activity,[41],105%
same,residual activity,[42],100%
